Measurements taken from the NIST ThermoML archive (doi:10.1016/j.jct.2004.12.008).

Assay: xn = mol fraction of the nth substance listed
Conditions: 101 kPa, Liquid

O=[N+]([O-])c1ccccc1 [nitrobenzene] + Cc1ccccc1C
Conditions	mass density [kg/m3]
293.15 K, x2 = 0	1202.95
293.15 K, x2 = 0.0498	1184.47
293.15 K, x2 = 0.1289	1155.75
293.15 K, x2 = 0.1892	1134.33
293.15 K, x2 = 0.2532	1112.04
293.15 K, x2 = 0.3234	1088.07
293.15 K, x2 = 0.3891	1066.07
293.15 K, x2 = 0.4421	1048.61
293.15 K, x2 = 0.4923	1032.31
293.15 K, x2 = 0.5534	1012.76
293.15 K, x2 = 0.6132	993.93
293.15 K, x2 = 0.6734	975.26
293.15 K, x2 = 0.7321	957.32
293.15 K, x2 = 0.7931	938.95
293.15 K, x2 = 0.8523	921.38
293.15 K, x2 = 0.9323	898.02
303.15 K, x2 = 0	1193.56
303.15 K, x2 = 0.0535	1173.86
303.15 K, x2 = 0.1123	1152.62
303.15 K, x2 = 0.1782	1129.29
303.15 K, x2 = 0.2423	1107.06
303.15 K, x2 = 0.3139	1082.76
303.15 K, x2 = 0.3687	1064.49
303.15 K, x2 = 0.4348	1042.84
303.15 K, x2 = 0.5023	1021.14
303.15 K, x2 = 0.5681	1000.36
303.15 K, x2 = 0.6189	984.56
303.15 K, x2 = 0.6892	963.04
303.15 K, x2 = 0.7422	947.07
303.15 K, x2 = 0.8021	929.26
303.15 K, x2 = 0.8731	908.5
303.15 K, x2 = 0.9298	892.17
313.15 K, x2 = 0	1183.37
313.15 K, x2 = 0.0621	1160.16
313.15 K, x2 = 0.1298	1135.44
313.15 K, x2 = 0.1924	1113.1
313.15 K, x2 = 0.2499	1092.98
313.15 K, x2 = 0.3234	1067.82
313.15 K, x2 = 0.3891	1045.81
313.15 K, x2 = 0.4348	1030.76
313.15 K, x2 = 0.5109	1006.14
313.15 K, x2 = 0.5782	984.82
313.15 K, x2 = 0.6328	967.81
313.15 K, x2 = 0.6902	950.21
313.15 K, x2 = 0.7591	929.44
313.15 K, x2 = 0.8244	910.1
313.15 K, x2 = 0.8823	893.22
313.15 K, x2 = 0.9357	877.88
323.15 K, x2 = 0	1172.38
323.15 K, x2 = 0.0634	1147.74
323.15 K, x2 = 0.1244	1124.62
323.15 K, x2 = 0.1824	1103.12
323.15 K, x2 = 0.2311	1085.44
323.15 K, x2 = 0.2893	1064.7
323.15 K, x2 = 0.3214	1053.45
323.15 K, x2 = 0.3855	1031.35
323.15 K, x2 = 0.4345	1014.79
323.15 K, x2 = 0.4902	996.28
323.15 K, x2 = 0.5689	970.68
323.15 K, x2 = 0.6321	950.58
323.15 K, x2 = 0.7024	928.68
323.15 K, x2 = 0.7842	903.78
323.15 K, x2 = 0.8725	877.55
323.15 K, x2 = 0.9432	857.03
333.15 K, x2 = 0	1160.59
333.15 K, x2 = 0.0598	1135.86
333.15 K, x2 = 0.1132	1114.33
333.15 K, x2 = 0.1935	1082.9
333.15 K, x2 = 0.2491	1061.75
333.15 K, x2 = 0.3011	1042.41
333.15 K, x2 = 0.3672	1018.4
333.15 K, x2 = 0.4189	1000.06
333.15 K, x2 = 0.4783	979.42
333.15 K, x2 = 0.5389	958.84
333.15 K, x2 = 0.5901	941.8
333.15 K, x2 = 0.6598	919.09
333.15 K, x2 = 0.7243	898.58
333.15 K, x2 = 0.7929	877.26
333.15 K, x2 = 0.8687	854.25
333.15 K, x2 = 0.9244	837.72
343.15 K, x2 = 0	1148
343.15 K, x2 = 0.0587	1121.63
343.15 K, x2 = 0.1321	1089.78
343.15 K, x2 = 0.1849	1067.6
343.15 K, x2 = 0.2378	1045.95
343.15 K, x2 = 0.3012	1020.73
343.15 K, x2 = 0.3519	1001.09
343.15 K, x2 = 0.4242	973.86
343.15 K, x2 = 0.4981	946.94
343.15 K, x2 = 0.5533	927.38
343.15 K, x2 = 0.6232	903.27
343.15 K, x2 = 0.6623	890.09
343.15 K, x2 = 0.7429	863.56
343.15 K, x2 = 0.8122	841.44
343.15 K, x2 = 0.8823	819.66
343.15 K, x2 = 0.9422	801.51
353.15 K, x2 = 0	1134.61
353.15 K, x2 = 0.0623	1103.66
353.15 K, x2 = 0.1133	1079.21
353.15 K, x2 = 0.1892	1044.18
353.15 K, x2 = 0.2489	1017.71
353.15 K, x2 = 0.3129	990.32
353.15 K, x2 = 0.3798	962.71
353.15 K, x2 = 0.4124	949.61
353.15 K, x2 = 0.483	922.01
353.15 K, x2 = 0.5345	902.52
353.15 K, x2 = 0.6084	875.41
353.15 K, x2 = 0.6631	855.98
353.15 K, x2 = 0.7249	834.64
353.15 K, x2 = 0.7931	811.8
353.15 K, x2 = 0.852	792.66
353.15 K, x2 = 0.9123	773.59
